In patent publication US5234934A, “Aminopropanol derivatives, process for their preparation and pharmaceutical compositions comprising the same” (priority 1989, dated 1993):

Assays:
[1] = acute toxicity test in mice (Litchfield and Wilcoxon); assay type: in vivo, mouse; conditions: mouse, in vivo, po., 14 days observation
Procedure: The test for acute toxicity was carried out by using 10 white mice (CFLP strain) (both male and female), weighing 18 to 22 g in each dose group. The compounds of the invention were administered orally in a dose of 20 ml/kg.
The animals were kept in a plastic box on wood chips in a room of room temperature. They could consume tap water and standard mouse feed ad libitum. The toxicity data were determined by the method of Litchfield and Wilcoxon (Litchfield, J. T., Wilcoxon, F. W.: J. Pharmacol. Exp. Ther. 96, 99/1949/).

[2] = test system: aconitine-induced ECG alterations; experiment: animal or person; assay type: in vivo, rat; conditions: Rattus norvegicus; for change in vivo at 4 mg/kg / ED50: iv; for change in vivo at 4 mg/kg / change in vivo at 100 mg/kg: read-out: Effect % (antiarrhythmic); for ED50: read-out: ED50 iv. (antiarrhythmic); for change in vivo at 100 mg/kg: po
Procedure: The test was carried out by using the modified method of Marmo et al. on rats weighing 160 to 200 g. The animals were narcotised by ethyl uretane (1.2 g/kg ip.). Aconitin was administered intravenously in a dose of 75 /ug/kg in the form of a bolus injection. The ECG alterations were monitored in standard II lead by 5 minutes after the administration of aconitine. The observed alterations were classified into classes 0 to 5. The compounds of the invention were administered 2 minutes or 60 minutes before the parenteral or oral administration of aconitine, respectively. […]
class 1: sometimes an extrasystole occurs class 2: each second one is an extrasystole class 3: extrasystoles in groups class 4: each one is an extrasystole class 5: fibrillation, death
(Marmo, E., DiGiacomo, S., Imperatore, A.: Arzeimittel-Forschung 20, 12/1970/)

hexobarbital narcosis = experiment: narcosis potentiating effect (hexobarbital sleeping time); conditions: for ED50: Mus musculus, po, read-out: ED50 (narcosis potentiation); for TI (therapeutic index): narcosis potentiation, mice, po.
Procedure: The narcosis potentiating effect of the compounds of the invention were examined on white mice, with 6 animals in each group. The mice were administered orally with the compounds of the invention, then both the control and the test groups were intravenously added 40 mg/kg of hexobarbital in order to make the mice sleep (Kaergard et al.).

## CC(C)(C)NCC(O)CO/N=C1\CCCC\C1=C/c1ccccc1 (racemic) [Example 2, R,S-2-(E)-Phenylmethylene-1-(E)-[3-(1,1-dimethylethyl-amino)-2-hydroxy-propoxyimino]-cyclohexane]
[1]
  LD50 at 336 h: 600 mg/kg
[2]
  change in vivo at 4 mg/kg: -43%

## CCCCCCNCC(O)CO/N=C1\CCCC\C1=C/c1ccccc1 (racemic) [Example 3, R,S-2-(E)-Phenylmethylene-1-(E)-(3-hexylamino-2-hydroxy-propoxyimino)-cyclohexane]
[1]
  LD50 at 336 h: > 1000 mg/kg

## COc1ccc(CCNCC(O)CO/N=C2\CCCC\C2=C/c2ccccc2)cc1OC (racemic) [Example 7]
[1]
  LD50 at 336 h: > 1000 mg/kg
Hexobarbital narcosis
  ED50: 70 mg/kg
  TI (therapeutic index): 14

## OC(CO/N=C1\CCCC\C1=C/c1ccccc1)CN1CCCC1 (racemic) [Example 8, R,S-2-(E)-Phenylmethylene-1-(E)-(3-pyrrolidinyl-2-hydroxy-propoxyimino)-cyclohexane]
[1]
  LD50 at 336 h: 800 mg/kg

## OC(CO/N=C1\CCCC\C1=C/c1ccccc1)CN1CCCCC1 (racemic) [Example 9, R,S-2-(E)-Phenylmethylene-1-(E)-(3-piperidinyl-2-hydroxypropoxyimino)-cyclohexane]
[1]
  LD50 at 336 h: 700 mg/kg
Hexobarbital narcosis
  ED50: 30 mg/kg
  TI (therapeutic index): 23

## CC(C)N(CC(O)CO/N=C1\CCCCC\C1=C/c1ccccc1)C(C)C (racemic) [Example 14, R,S-2-(E)-Phenylmethylene-1-(E)-{3-[bis-(1-methylethyl)-amino]-2-hydroxy-propoxyimino}-cycloheptane]
[1]
  LD50 at 336 h: 900 mg/kg
[2]
  ED50: 1.64 mg/kg
  change in vivo at 4 mg/kg: -83%
Hexobarbital narcosis
  ED50: 80 mg/kg
  TI (therapeutic index): 11

## C#CC(C)(C)NCC(O)CO/N=C1\CCCCC\C1=C/c1ccccc1 (racemic) [Example 16, R,S-2-(E)-Phenylmethylene-1-(E)-[3-(1,1-dimethylpropin-2-yl)amino-2-hydroxy-propoxyimino]-cycloheptane]
[1]
  LD50 at 336 h: > 1000 mg/kg

## CN1CCN(CC(O)CO/N=C2\CCCCC\C2=C/c2ccccc2)CC1 (racemic) [Example 17, R,S-2-(E)-Phenylmethylene-1-(E)-[3-(4-methyl-1-piperazinyl)-2-hydroxy-propoxyimino]-cycloheptane]
[1]
  LD50 at 336 h: > 1000 mg/kg

## CC(C)N(CC(O)CO/N=C1\CCCCCC\C1=C/c1ccccc1)C(C)C (racemic) [Example 19, R,S-2-(E)-Phenylmethylene-1-(E)-{3-[bis(1-methylethyl)-amino]-2-hydroxy-propoxyimino}-cyclooctane]
[1]
  LD50 at 336 h: 800 mg/kg
[2]
  ED50: 3.29 mg/kg
  change in vivo at 4 mg/kg: -76%
Hexobarbital narcosis
  ED50: 26 mg/kg
  TI (therapeutic index): 31

## CC(C)(C)NCC(O)CO/N=C1\CCC\C1=C/c1ccccc1 (racemic) [Example 22, R,S-2-(E)-Phenylmethylene-1-(E)-[3-(1,1-dimethylethylamino)-2-hydroxy-propoxyimino]-cyclopentane]
[1]
  LD50 at 336 h: 900 mg/kg

## CC(C)(C)NCC(O)CO/N=C1\CCCC\C1=C/c1ccccc1Cl (racemic) [Example 23, R,S-(E)-(2-Chlorophenyl-methylene)-1-(E)-[3-(1,1-dimethylethylamino)-2-hydroxy-propoxyimino]-cyclohexane]
[1]
  LD50 at 336 h: 130 mg/kg
[2]
  ED50: 0.36 mg/kg
  change in vivo at 4 mg/kg: -83%
Hexobarbital narcosis
  ED50: 16 mg/kg
  TI (therapeutic index): 8

## OC(CNC1CC1)CO/N=C1\CCCC\C1=C/c1ccc(Cl)cc1 (racemic) [Example 27, R,S-2-(E)-(4-Chlorophenyl-methylene)-1-(E)-(3-cyclopropylamino-2-hydroxy-propoxyimino)-cyclohexane]
[1]
  LD50 at 336 h: ~1000 mg/kg
Hexobarbital narcosis
  ED50: 35 mg/kg
  TI (therapeutic index): 29

## CC(C)NCC(O)CO/N=C1\CCCC\C1=C/c1ccc(Cl)cc1 (racemic) [Example 28, R,S-2-(E)-(4-Chlorophenyl-methylene)-1-(E)-[3-(1-methylethylamino)-2-hydroxy-propoxyimino]-cyclohexane]
[1]
  LD50 at 336 h: 1500 mg/kg
Hexobarbital narcosis
  ED50: 75 mg/kg
  TI (therapeutic index): 20

## CC(C)(C)NCC(O)CO/N=C1\CCCC\C1=C/c1ccc(Cl)cc1 (racemic) [Example 31, R,S-2-(E)-(4-Chlorophenyl-methylene)-1-(E)-[3-(1,1-dimethylethylamino)-2'-hydroxy-propoxyimino]-cyclohexane]
[1]
  LD50 at 336 h: ~1000 mg/kg

## CCCN(CCC)CC(O)CO/N=C1\CCCC\C1=C/c1ccc(Cl)c(Cl)c1 (racemic) [Example 34, R,S-2-(E)-(3,4-Dichlorophenyl-methylene)-1-(E)-(3-/bis-n-propyl/-amino-2-hydroxy-propoxyimino)-cyclohexane]
[1]
  LD50 at 336 h: > 1000 mg/kg
Hexobarbital narcosis
  ED50: 145 mg/kg
  TI (therapeutic index): > 7

## CCCNCC(O)CO/N=C1\CCCC\C1=C/c1c(Cl)cccc1Cl (racemic) [Example 35, R,S-2-(E)-(2,6-Dichlorophenyl-methylene)-1-(E)-(3-propylamino-2-hydroxy-propoxyimino)-cyclohexane]
[1]
  LD50 at 336 h: 600 mg/kg
[2]
  ED50: 1.84 mg/kg
  change in vivo at 4 mg/kg: -100%
Hexobarbital narcosis
  ED50: 11.5 mg/kg
  TI (therapeutic index): 52

## COc1ccccc1/C=C1\CCCC\C1=N/OCC(O)CN1CCOCC1 (racemic) [Example 37, R,S-2-(E)-(2-Methoxyphenyl-methylene)-1-(E)-(3-morpholinyl-2-hydroxy-propoxyimino)-cyclohexane]
[1]
  LD50 at 336 h: > 1000 mg/kg
Hexobarbital narcosis
  ED50: 50 mg/kg
  TI (therapeutic index): > 20

## COc1cccc(/C=C2\CCCC\C2=N/OCC(O)CN2CCN(Cc3ccccc3)CC2)c1 (racemic) [Example 39, R,S-2-(E)-(3-Methoxyphenyl-methylene)-1-(E)-{3-[(4-phenylmethyl)-1-piperazinyl]-2-hydroxy-propoxyimino}-cyclohexane]
[1]
  LD50 at 336 h: > 1000 mg/kg

## COc1ccc(/C=C2\CCCCC\C2=N/OCC(O)CNC2CC2)cc1 (racemic) [Example 42, R,S-2-(E)-(4-Methoxyphenyl-methylene)-1-(E)-(3-cyclopropylamino-2-hydroxy-propoxyimino)-cycloheptane]
[1]
  LD50 at 336 h: > 1000 mg/kg
Hexobarbital narcosis
  ED50: 14.5 mg/kg
  TI (therapeutic index): > 69

## CCCCNCC(O)CO/N=C1\CCCCCC\C1=C/c1ccccc1 (racemic) [Example 49, R,S-2-(E)-Phenylmethylene-1-(E)-(3-butylamino-2-hydroxypropoxyimino)-cyclooctane]
[1]
  LD50 at 336 h: > 1000 mg/kg

## COc1ccc(/C=C2\CCCCC\C2=N/OCC(O)CNC(C)C)cc1 (racemic) [Example 50, R,S-2-(E)-(4-Methoxyphenyl-methylene)-1-(E)-/3-(1-methylethylamino)-2-hydroxy-propoxyimino/-cycloheptane]
[1]
  LD50 at 336 h: 1000 mg/kg

## OC(CO/N=C1\CCCC\C1=C/c1ccccc1)CN1CCN(c2cccc(Cl)c2)CC1 (racemic) [Example 52, R,S-2-(E)-Phenylmethylene-1-(E)-{3-[4-(3-chlorophenyl)-1-piperazinyl]-2-hydroxy-propoxyimino}-cyclohexane]
[1]
  LD50 at 336 h: > 1000 mg/kg

## OC(CO/N=C1\CCCC\C1=C/c1ccccc1)CN1CCN(c2cccc(C(F)(F)F)c2)CC1 (racemic) [Example 53, R,S-2-(E)-Phenylmethylene-1-(E)-3-[4-(3-trifluoromethyl)-phenyl-1-piperazinyl]-2-hydroxy-propoxyimino-cyclohexane]
[1]
  LD50 at 336 h: > 1000 mg/kg

## OC(CO/N=C1\CCCC\C1=C/c1ccccc1)CN1CCC(Cc2ccccc2)CC1 (racemic) [Example 54]
[1]
  LD50 at 336 h: 600 mg/kg
[2]
  ED50: 3.47 mg/kg
  change in vivo at 4 mg/kg: -56%

## O=C(OC(CO/N=C1\CCCCCC\C1=C/c1ccccc1)CN1CCOCC1)c1ccccc1 (racemic) [Example 69, R,S-2-(E)-Phenylmethylene-1-(E)-[3'-(4-morpholinyl)-2'-benzoyloxy-propoxyimino]-cyclooctane]
[1]
  LD50 at 336 h: > 1000 mg/kg

## CNC1=Nc2ccc(Cl)cc2C(c2ccccc2)=[N+]([O-])C1 [Chlordiazepoxide, reference compound]
Hexobarbital narcosis
  ED50: 10 mg/kg
  TI (therapeutic index): 62

## COc1ccc([C@@H]2Sc3ccccc3N(CCN(C)C)C(=O)[C@@H]2OC(C)=O)cc1 [Dilthiazem, reference compound]
[2]
  change in vivo at 4 mg/kg: -27%

## CCCC(C)(COC(N)=O)COC(N)=O [Meprobamate, reference compound]
Hexobarbital narcosis
  ED50: 260 mg/kg
  TI (therapeutic index): 4.2

## Cc1cccc(C)c1OCC(C)N (centres unmarked) [Mexiletine, reference compound]
[2]
  change in vivo at 4 mg/kg: -21%

## CC(C)NCC(O)COc1cccc2[nH]ccc12 (centres unmarked) [Pindolol, reference compound]
[2]
  change in vivo at 100 mg/kg: -52%

## CC(C)NCC(O)COc1cccc2ccccc12 (centres unmarked) [Propranolol, reference compound]
[2]
  ED50: 5.81 mg/kg
  change in vivo at 4 mg/kg: -7%
  change in vivo at 100 mg/kg: -50%
